Measured values reported in patent US9586958B2, “Prodrug derivatives of substituted triazolopyridines” (BAYER PHARMA AKTIENGESELLSCHAFT, priority 2013, dated 2017).
Where a name gives a salt, the structure may show the parent alone.

What was measured:
[1] = Stability in buffer at pH 7.4 (HPLC); type: physicochemical; conditions: buffer pH 7.4, 37° C.
Protocol: 0.3 mg of the test compound are solved in 0.1 ml dimethylsulfoxide and 0.4 ml acetonitrile. For complete dissolution the HPLC vial with the sample solution is sonified for about 20 seconds. Then 1.0 ml of the buffer solution is added, and the sample is again treated in the ultrasonic bath.
90 g of sodium chloride, 13.61 g of potassium dihydrogen phosphate and 83.35 g of 1 M sodium hydroxide solution are made up to 1 liter with Millipore water and then diluted 1:10.
10 μl portions of the sample solution are analysed by HPLC to determine the amount of the test compound over a period of 24 hours at 37° C. The peak areas in percentage are used for quantification.
Agilent 1100 with DAD (G1315B), binary pump (G1312A), autosampler (G1329A), column oven (G1316A), thermostat (G1330B); column: Kromasil 100 C18, 250 mm×4 mm, 5 μm; column temperature: 37° C.; eluent A: water+5 ml of perchloric acid/liter, eluent B: acetonitrile.
The ratio of the peak areas (F) at different time points in relation to the peak areas at the starting time are shown in Table 2 for representative examples: […]

[2] = In vitro stability in rat plasma (HPLC detection); type: in vitro ADME; conditions: 37° C.
Protocol: 1 mg of test compound is dissolved in 1.25 ml dimethylsulfoxide. Then 1.25 ml water are added. 0.5 ml of this sample solution are mixed with 0.5 ml heparinized and 37° C. warm plasma (wistar rat plasma or human plasma). A first sample (10 μl) is immediately taken for HPLC analysis. In the period up to 4 h after the start of incubation further 10 μl aliquots are taken after 30, 60, 90, 120 and 240 minutes and the amount of the test compound is determined.
Agilent 1100 with DAD (G1315A), binary pump (G1312A), autosampler (G1329A), column oven (G1316A), thermostat (G1330B); column: Kromasil 100 C18, 250 mm×4 mm, 5 μm; column temperature: 45° C.; eluent A: water+5 ml of perchloric acid/liter, eluent B: acetonitrile.

[3] = Metabolic stability in vitro, rat liver microsomes (calculation of Fmax); type: in vitro ADME; conditions: comparison table with comparative examples
Protocol: (§1) The metabolic stability of test compounds in vitro was determined by incubating them at 1 μM with a suspension liver microsomes in 100 mM phosphate buffer, pH7.4 (NaH2PO4×H2O+Na2HPO4×2H2O) at a protein concentration of 0.5 mg/mL and at 37° C. The reaction was activated by adding a co-factor mix containing 1.2 mg NADP, 3 IU glucose-6-phosphate dehydrogenase, 14.6 mg glucose-6-phosphate and 4.9 mg MgCl2 in phosphate buffer, pH 7.4. Organic solvent in the incubations was limited to <0.2% dimethylsulfoxide (DMSO) and <1% methanol. During incubation, the microsomal suspensions were continuously shaken and aliquots were taken at 2, 8, 16, 30, 45 and 60 min, to which equal volumes of cold methanol were immediately added. Samples were frozen at −20° C. over night, subsequently centrifuged for 15 minutes at 3000 rpm and the supernatant was analyzed with an Agilent 1200 HPLC-system with LCMS/MS detection.
(§2) The half-life of a test compound was determined from the concentration-time plot. From the half-life the intrinsic clearances were calculated. Together with the additional parameters liver blood flow, specific liver weight and microsomal protein content the hepatic in vivo blood clearance (CL) and the maximal oral bioavailability (Fmax) were calculated for the different species. The following parameter values were used: Liver blood flow—1.3 L/h/kg (human), 2.1 L/h/kg (dog), 4.2 L/h/kg (rat); specific liver weight—21 g/kg (human), 39 g/kg (dog), 32 g/kg (rat); microsomal protein content—40 mg/g.
(§3) With the described assay only phase-I metabolism of microsomes is reflected, e.g. typically oxidoreductive reactions by cytochrome P450 enzymes and flavin mono-oxygenases (FMO) and hydrolytic reactions by esterases (esters and amides).

[4] = Metabolic stability in vitro, dog liver microsomes (calculation of Fmax); type: in vitro ADME; conditions: comparison table with comparative examples
Protocol: as §1, §2, §3

% Test Compound after 24 h [F(t = 24 h) × 100/F(t = 0 h)] [1] | % Test Compound after 4 h [F(t = 24 h) × 100/F(t = 0 h)] [2] | Rat liver microsomes; Fmax [%] [3] | Dog liver microsomes; Fmax [%] [4] | Structure (SMILES)
0.0% | 0.0% | – | – | COc1cc(S(C)(=O)=O)ccc1N(C(=O)OCOC(=O)[C@@H](N)C(C)C)c1nc2ccc(-c3ccc(NC(=O)[C@H](C)c4ccc(F)cc4)cc3)cn2n1 [Example 1.2, ({[6-(4-{[(2R)-2-(4-fluorophenyl)propanoyl]amino}phenyl)[1,2,4]triazolo[1,5-α]pyridin-2-yl][2-methoxy-4-(methylsulfonyl)phenyl]carbamoyl}oxy)methyl L-valinate hydrochloride]
0.0% | 14% | – | – | CN[C@H](C(=O)OCOC(=O)N(c1nc2ccc(-c3ccc(NC(=O)[C@H](C)c4ccc(F)cc4)cc3)cn2n1)c1ccc(S(C)(=O)=O)cc1OC)C(C)C.Cl [Example 1.4, ({[6-(4-{[(2R)-2-(4-fluorophenyl)propanoyl]amino}phenyl)[1,2,4]triazolo[1,5-α]pyridin-2-yl][2-methoxy-4-(methylsulfonyl)phenyl]carbamoyl}oxy)methyl N-methyl-L-valinate hydrochloride]
0.0% | 0.0% | – | – | COc1cc(S(C)(=O)=O)ccc1N(C(=O)OCOC(=O)[C@@H](N)C(C)(C)C)c1nc2ccc(-c3ccc(NC(=O)[C@H](C)c4ccc(F)cc4)cc3)cn2n1.Cl [Example 1.5, ({[6-(4-{[(2R)-2-(4-fluorophenyl)propanoyl]amino}phenyl)[1,2,4]triazolo[1,5-α]pyridin-2-yl][2-methoxy-4-(methylsulfonyl)phenyl]carbamoyl}oxy)methyl 3-methyl-L-valinate hydrochloride]
0.0% | 3% | – | – | COc1cc(S(C)(=O)=O)ccc1N(C(=O)OCOC(=O)C(C)(C)CN)c1nc2ccc(-c3ccc(NC(=O)[C@H](C)c4ccc(F)cc4)cc3)cn2n1.O=C(O)C(F)(F)F [Example 1.8, ({[6-(4-{[(2R)-2-(4-fluorophenyl)propanoyl]amino}phenyl)[1,2,4]triazolo[1,5-α]pyridin-2-yl][2-methoxy-4-(methylsulfonyl)phenyl]carbamoyl}oxy)methyl 3-amino-2,2-dimethylpropanoate trifluoroacetate]
0.0% | 0.0% | – | – | COc1cc(S(C)(=O)=O)ccc1N(C(=O)OCOC(=O)[C@@H](NC(=O)[C@@H](N)CCCCN)C(C)C)c1nc2ccc(-c3ccc(NC(=O)[C@H](C)c4ccc(F)cc4)cc3)cn2n1.Cl.Cl [Example 2.1, ({[6-(4-{[(2R)-2-(4-fluorophenyl)propanoyl]amino}phenyl)[1,2,4]triazolo[1,5-α]pyridin-2-yl][2-methoxy-4-(methylsulfonyl)phenyl]carbamoyl}oxy)methyl L-lysyl-L-valinate dihydrochloride]
16% | 37% | – | – | COc1cc(S(C)(=O)=O)ccc1N(C(=O)OCOC(=O)[C@@H](NC(=O)[C@@H](N)C(C)C)C(C)C)c1nc2ccc(-c3ccc(NC(=O)[C@H](C)c4ccc(F)cc4)cc3)cn2n1 [Example 2.3, ({[6-(4-{[(2R)-2-(4-fluorophenyl)propanoyl]amino}phenyl)[1,2,4]triazolo[1,5-α]pyridin-2-yl][2-methoxy-4-(methylsulfonyl)phenyl]carbamoyl}oxy)methyl L-valyl-L-valinate hydrochloride]
23% | 12% | – | – | CNCCCC(=O)N(c1nc2ccc(-c3ccc(NC(=O)[C@H](C)c4ccc(F)cc4)cc3)cn2n1)c1ccc(S(C)(=O)=O)cc1OC.O=C(O)C(F)(F)F [Example 4.1, N-[6-(4-{[(2R)-2-(4-fluorophenyl)propanoyl]amino}phenyl)[1,2,4]triazolo[1,5-α]pyridin-2-yl]-N-[2-methoxy-4-(methylsulfonyl)phenyl]-4-(methylamino)butanamide trifluoroacetate]
0.0% | 4% | – | – | C[C@@H](C(=O)Nc1ccc(-c2ccc3nc(N(C(=O)OCOC(=O)[C@@H](N)C(C)(C)C)c4ccc(S(C)(=O)=O)cc4OCC(F)(F)F)nn3c2)cc1)c1ccc(F)cc1.Cl [Example 6.1, ({[6-(4-{[(2R)-2-(4-fluorophenyl)propanoyl]amino}phenyl)[1,2,4]triazolo[1,5-α]pyridin-2-yl][4-(methylsulfonyl)-2-(2,2,2-trifluoroethoxy)phenyl]carbamoyl}oxy)methyl 3-methyl-L-valinate hydrochloride]
0.0% | 0.0% | – | – | C[C@@H](C(=O)Nc1ccc(-c2ccc3nc(N(C(=O)OCOC(=O)[C@@H](N)C(C)(C)C)c4ccc(C(=O)N5CC(F)C5)cc4OCC(F)(F)F)nn3c2)cc1)c1ccc(F)cc1.Cl [Example 6.3, [({4-[(3-fluoroazetidin-1-yl)carbonyl]-2-(2,2,2-trifluoroethoxy)phenyl}[6-(4-{[(2R)-2-(4-fluorophenyl)propanoyl]amino}phenyl)[1,2,4]triazolo[1,5-α]pyridin-2-yl]carbamoyl)oxy]methyl 3-methyl-L-valinate hydrochloride]
48% | 80% | – | – | CNCCOC(=O)N(c1nc2ccc(-c3ccc(NC(=O)[C@H](C)c4ccc(F)cc4)cc3)cn2n1)c1ccc(S(C)(=O)=O)cc1OC.Cl [Example 7.1, 2-(methylamino)ethyl [6-(4-{[(2R)-2-(4-fluorophenyl)propanoyl]amino}phenyl)[1,2,4]triazolo[1,5-α]pyridin-2-yl][2-methoxy-4-(methylsulfonyl)phenyl]carbamate hydrochloride]

Second part, the compound before the results:

Structure (SMILES) | % Test Compound after 24 h [F(t = 24 h) × 100/F(t = 0 h)] [1] | % Test Compound after 4 h [F(t = 24 h) × 100/F(t = 0 h)] [2] | Rat liver microsomes; Fmax [%] [3] | Dog liver microsomes; Fmax [%] [4]
CNCCCC(=O)N(c1nc2ccc(-c3ccc(NC(=O)[C@H](C)c4ccc(F)cc4)cc3)cn2n1)c1ccc(S(C)(=O)=O)cc1OC.Cl [Example 4.1.1, N-[6-(4-{[(2R)-2-(4-fluorophenyl)propanoyl]amino}phenyl)[1,2,4]triazolo[1,5-α]pyridin-2-yl]-N-[2-methoxy-4-(methylsulfonyl)phenyl]-4-(methylamino)butanamide hydrochloride] | 21% | 32% | – | –
COc1ccccc1Nc1nc2ccc(-c3ccc(NC(=O)Cc4ccccc4)cc3)cn2n1 [reference compound] | – | – | 40% | –
N#Cc1ccccc1Nc1nc2ccc(-c3ccc(NC(=O)Cc4ccc(F)cc4)cc3)cn2n1 [reference compound] | – | – | 40% | –
COC(C(=O)Nc1ccc(-c2ccc3nc(Nc4ccccc4C#N)nn3c2)cc1)c1ccccc1 (stereo not shown) [reference compound] | – | – | 19% | –
N#Cc1ccccc1Nc1nc2ccc(-c3ccc(NC(=O)C(F)(F)c4ccccc4)cc3)cn2n1 [reference compound] | – | – | 27% | –
N#Cc1ccccc1Nc1nc2ccc(-c3ccc(NC(=O)C(F)c4ccccc4)cc3)cn2n1 (stereo not shown) [reference compound] | – | – | 26% | –
COc1cc(C(=O)N2CCOCC2)ccc1Nc1nc2ccc(-c3ccc(NC(=O)Cc4ccc(F)cc4)cc3)cn2n1 [reference compound] | – | – | 48% | –
CCOc1cc(S(C)(=O)=O)ccc1Nc1nc2ccc(-c3ccc(C(=O)NCc4ccc(F)cc4)c(C)c3)cn2n1 [reference compound] | – | – | – | 12%
COc1cc(C(=O)NCC(F)(F)F)ccc1Nc1nc2ccc(-c3ccc(NC(=O)Cc4ccc(F)cc4)cc3)cn2n1 [reference compound] | – | – | – | 40%
COc1cc(N2CCOC2=O)ccc1Nc1nc2ccc(-c3ccc(NC(=O)Cc4ccc(F)cc4)cc3)cn2n1 [reference compound] | – | – | – | 17%
